Reference: US7063946B2, “Methods, reagents, kits and apparatus for protein function analysis” (Meso Scale Technologies, LLC., priority 2001, dated 2006)

Legend:
BTK = target: T1, BTK (Homo sapiens, UniProt Q06187); assay: Kinase inhibitor profiling, autophosphorylation; assay type: biochemical
T1 construct: specificity data for proteins generated from a library of eighteen full-length clones; host or cells: rabbit reticulocyte lysate, TnT coupled in vitro transcription/translation (cell-free)

Kdr [1] = target: T2, Kdr (Mus musculus, UniProt P35918); assay: Kinase inhibitor profiling, autophosphorylation; assay type: biochemical
T2 construct: specificity data for proteins generated from a library of eighteen full-length clones; biotin on random lysines (biotin-Lys-tRNA); host or cells: rabbit reticulocyte lysate, coupled transcription/translation (TnT, Promega)
T2 sequence (P35918 20-1345): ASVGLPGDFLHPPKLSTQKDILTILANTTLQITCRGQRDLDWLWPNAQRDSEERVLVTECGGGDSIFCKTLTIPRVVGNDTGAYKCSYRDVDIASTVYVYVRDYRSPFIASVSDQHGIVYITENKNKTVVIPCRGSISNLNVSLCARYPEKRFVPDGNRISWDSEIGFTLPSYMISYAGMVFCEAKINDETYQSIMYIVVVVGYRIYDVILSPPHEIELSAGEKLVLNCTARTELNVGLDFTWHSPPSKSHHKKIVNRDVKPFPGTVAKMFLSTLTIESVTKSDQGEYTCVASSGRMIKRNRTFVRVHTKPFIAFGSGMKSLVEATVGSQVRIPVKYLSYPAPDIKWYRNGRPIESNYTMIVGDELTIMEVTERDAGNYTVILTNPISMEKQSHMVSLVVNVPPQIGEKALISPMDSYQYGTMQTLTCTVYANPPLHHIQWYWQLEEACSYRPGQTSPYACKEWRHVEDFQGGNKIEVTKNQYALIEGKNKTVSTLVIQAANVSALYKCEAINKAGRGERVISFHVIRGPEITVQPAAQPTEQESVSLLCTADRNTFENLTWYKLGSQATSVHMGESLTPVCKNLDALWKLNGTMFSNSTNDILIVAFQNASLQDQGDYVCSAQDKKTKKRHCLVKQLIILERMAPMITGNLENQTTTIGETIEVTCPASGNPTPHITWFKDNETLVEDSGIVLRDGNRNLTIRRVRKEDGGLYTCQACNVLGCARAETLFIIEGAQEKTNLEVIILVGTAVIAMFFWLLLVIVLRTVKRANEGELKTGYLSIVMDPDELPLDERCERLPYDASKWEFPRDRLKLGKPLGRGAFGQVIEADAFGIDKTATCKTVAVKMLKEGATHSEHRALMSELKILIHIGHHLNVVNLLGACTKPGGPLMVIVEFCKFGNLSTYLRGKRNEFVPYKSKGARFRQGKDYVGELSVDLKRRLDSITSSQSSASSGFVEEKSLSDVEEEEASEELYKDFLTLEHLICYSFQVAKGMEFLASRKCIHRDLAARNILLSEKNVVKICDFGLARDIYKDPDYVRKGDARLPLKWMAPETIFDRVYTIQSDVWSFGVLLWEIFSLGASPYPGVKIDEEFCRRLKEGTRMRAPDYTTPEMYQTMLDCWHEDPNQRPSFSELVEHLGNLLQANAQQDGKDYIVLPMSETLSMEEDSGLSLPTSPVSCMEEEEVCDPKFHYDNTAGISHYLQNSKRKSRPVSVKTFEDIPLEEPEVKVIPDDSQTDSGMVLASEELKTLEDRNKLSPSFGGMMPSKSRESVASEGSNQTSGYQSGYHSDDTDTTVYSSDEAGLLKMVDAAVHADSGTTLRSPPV
Protocol: Proteins were produced from DNA plasmids of Mock Luciferase, Promega, tyrosine kinase clone Spleen Tyrosine kinase (SYK, IMAGE ID# 3870426) and Eph receptor-A7 (EphA7, IMAGE ID# 3991628) (Incyte Genomics, CA) and immobilized on streptavidin or avidin coated NPT-IPR plates as described in the Example 7. To promote autophosphorylation in these immobilized and purified proteins, Mn++ ions were added in a 50 μl reaction containing 5 mM MgCl2, 5 mM MnCl2, 100 μM ATP, 25 mM Tris-HCl buffer pH 7.4, 0.05 mM Na3VO4, 0.004% TritonX-100, 2 mM DTT and EDTA-free protease inhibitor (Roche Molecular Biochemicals). This mixture was incubated with shaking at room temperature overnight to allow autophosphorylation. Following this incubation, wells were washed 2 times with TT-buffer and 2 times with water. Following this step, 50 ng Sulfo-TAG labeled anti-phosphotyrosine in buffer containing 25 mM Tris-HCl buffer pH 7.4, 5 mM MgCl2, 0.05 mM Na3VO4, 0.004% TritonX-100, 2 mM DTT and 0.05% IgG in a final volume of 50 μl was added followed by incubation at room temperature for 45 min. The unbound reagents were removed by one time washing with water, and the TAG label was detected in presence of 150 μl IPR assay buffer (0.4 mM Gly—Gly buffer, pH 7.8, 1 mM EDTA, 0.1 M TPA). The ECL signals were measured using an imaging plate reader.
(§1) The unbound components of the translation reaction (including any endogenous kinases) were removed by 3 washes with TT-buffer (25 mM Tris-HCl buffer pH 7.4 and 0.004% Triton), two five minutes washes with high-salt wash buffer (25 mM Tris-HCl buffer pH 7.4, 0.004% Triton, 1M NaCl and 5 mM DTT) and 3 washes with TT-buffer. […] The mixture was incubated at room temperature for 10 mm before starting the kinase reaction by adding 25 μl of 200 μM ATP in buffer A. This mixture was incubated with intermittent shaking at room temperature for 2 hours to overnight to allow (a) phosphorylation of the pEY substrate and (b) autophosphorylation of the immobilized kinases. Autophosphorylation and phosphorylation of the pEY was measured as described in Examples 7 and 8.
(§2) The ECL signal in control wells produced by tyrosine kinases was compared to the wells containing inhibitor compounds.

[2] = test system: tyrosine kinases reported to be the target of each inhibitor; conditions: read-out: reported IC50 concentration (1× concentration); for the kinase reported to be the target of the inhibitor; cited from earlier work
Kdr [3] = target: T2, Kdr; assay: Kinase inhibitor profiling, pEY phosphorylation; assay type: biochemical
Protocol: Proteins were produced in an in vitro transcription and translation reaction. […] The unbound components of the reaction containing endogenous kinases were removed by three washes with TT-buffer (25 mM Tris-HCl buffer pH 7.4 and 0.004% Triton), two five minutes washings with high-salt wash buffer (25 mM Tris-HCl buffer pH 7.4, 0.004% Triton, 1M NaCl and 5 mM DTT) and 3 more washes with TT-buffer. To these immobilized and purified proteins a tyrosine kinase substrate, 5 nM pEY (poly Glu-Tyr, Sigma, MO), was added in a 50 μl reaction solution containing 5 mM MgCl2, 5 mM MnCl2, 100 μM ATP, 25 mM Tris-HCl buffer pH 7.4, 0.05 mM Na3VO4, 0.004% TritonX-100, 2 mM DTT and EDTA-free protease inhibitor (Roche Molecular Biochemicals). This mixture was incubated with shaking at room temperature overnight to allow phosphorylation of the pEY substrate by the immobilized kinases. Following this incubation, 45 μl of this mixture was transferred to a streptavidin or avidin-coated NPT IPR plate coated with biotinylated anti-phosphotyrosine antibody (PY20, Zymed labs, CA) followed by incubation for 30 minutes at room temperature to allow the binding of the phosphorylated pEY substrate to the PY20 coated NPT plate. Following this binding step, 50 ng Sulfo-TAG labeled anti-phosphotyrosine in buffer containing 25 mM Tris-HCl buffer pH 7.4, 5 mM MgCl2, 0.05 mM Na3VO4, 0.004% TritonX-100, 2 mM DTT and 0.05% IgG was added followed by incubation at room temperature for 30 mm. The unbound reagents were removed by one time washing with water, and the TAG label was detected in presence of 150 μl IPR assay buffer (0.4 mM Gly-Gly buffer, pH 7.8, 1 mM EDTA, 0.1 M TPA). The ECL signals were measured using an imaging plate reader.
as §1, §2

T1 sequence (Q06187 whole entry): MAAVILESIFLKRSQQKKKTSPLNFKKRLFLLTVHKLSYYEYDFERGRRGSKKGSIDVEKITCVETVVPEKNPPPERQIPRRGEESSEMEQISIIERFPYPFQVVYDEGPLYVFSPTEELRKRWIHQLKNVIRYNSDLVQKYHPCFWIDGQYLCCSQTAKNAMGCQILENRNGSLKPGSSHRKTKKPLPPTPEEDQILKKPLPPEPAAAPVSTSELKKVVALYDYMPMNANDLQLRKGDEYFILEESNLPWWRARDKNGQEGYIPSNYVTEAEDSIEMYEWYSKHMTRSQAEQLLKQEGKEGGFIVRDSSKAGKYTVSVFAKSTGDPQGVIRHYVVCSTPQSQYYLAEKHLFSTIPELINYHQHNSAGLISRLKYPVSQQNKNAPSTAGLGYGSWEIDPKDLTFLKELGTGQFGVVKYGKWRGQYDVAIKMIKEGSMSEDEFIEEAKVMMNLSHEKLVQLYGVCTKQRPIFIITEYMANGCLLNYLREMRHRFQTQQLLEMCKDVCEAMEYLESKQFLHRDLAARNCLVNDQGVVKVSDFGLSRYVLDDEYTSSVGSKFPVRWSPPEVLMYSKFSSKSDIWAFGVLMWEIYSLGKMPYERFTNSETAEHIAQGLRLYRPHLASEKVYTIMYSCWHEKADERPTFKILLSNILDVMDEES

COC(=O)c1ccc(NCc2cc(O)ccc2O)cc1 [AG-957]
Inhibition specificity towards Autophosphorylation at 10X IC50, BTK (BTK): L (low inhibition (“L”=between 50–75% of the activity remaining))
Inhibition specificity towards Autophosphorylation at 10X IC50, Kdr (Kdr [1]): L (low inhibition (“L”=between 50–75% of the activity remaining))
IC50 [2]: 0.75 µM

CC(C)(C)c1cc(C=C(C#N)C#N)cc(Br)c1O [AG-1024]
Inhibition specificity towards Autophosphorylation at 10X IC50, BTK (BTK): L (low inhibition (“L”=between 50–75% of the activity remaining))
IC50 [2]: 18 µM
Inhibition specificity towards pEY phosphorylation at 10X IC50, Kdr (Kdr [3]): M (medium inhibition (“M”=between 25 to 50% of the activity remaining))

Cc1cc2ncc(-c3ccc(O)c(O)c3)nc2cc1C [AG-1433]
Inhibition specificity towards Autophosphorylation at 10X IC50, BTK (BTK): H (high inhibition (“H”=less than 25% of the activity remaining))
Inhibition specificity towards Autophosphorylation at 10X IC50, Kdr (Kdr [1]): H (high inhibition (“H”=less than 25% of the activity remaining))
IC50 [2]: 5 µM
Inhibition specificity towards pEY phosphorylation at 10X IC50, Kdr (Kdr [3]): H (high inhibition (“H”=less than 25% of the activity remaining))

COc1c(C=O)c(O)cc2c1C(=O)c1ccccc1C2=O [Damnacanthal]
Inhibition specificity towards Autophosphorylation at 10X IC50, BTK (BTK): H (high inhibition (“H”=less than 25% of the activity remaining))
Inhibition specificity towards Autophosphorylation at 10X IC50, Kdr (Kdr [1]): H (high inhibition (“H”=less than 25% of the activity remaining))
IC50 [2]: 0.62 µM
Inhibition specificity towards pEY phosphorylation at 10X IC50, Kdr (Kdr [3]): H (high inhibition (“H”=less than 25% of the activity remaining))

Cc1ccc(-c2nn(C(C)(C)C)c3ncnc(N)c23)cc1 [PP1]
Inhibition specificity towards Autophosphorylation at 10X IC50, Kdr (Kdr [1]): L (low inhibition (“L”=between 50–75% of the activity remaining))
IC50 [2]: 0.6 µM
Inhibition specificity towards pEY phosphorylation at 10X IC50, Kdr (Kdr [3]): M (medium inhibition (“M”=between 25 to 50% of the activity remaining))

COc1cc2ncnc(Nc3ccc(Cl)cc3F)c2cc1OC [VEGFR inhibitor]
Inhibition specificity towards Autophosphorylation at 10X IC50, BTK (BTK): L (low inhibition (“L”=between 50–75% of the activity remaining))
Inhibition specificity towards Autophosphorylation at 10X IC50, Kdr (Kdr [1]): M (medium inhibition (“M”=between 25 to 50% of the activity remaining))
IC50 [2]: 2 µM
Inhibition specificity towards pEY phosphorylation at 10X IC50, Kdr (Kdr [3]): H (high inhibition (“H”=less than 25% of the activity remaining))

COc1cc2ncnc(Nc3ccc(O)cc3)c2cc1OC [WHI-P131]
Inhibition specificity towards Autophosphorylation at 10X IC50, Kdr (Kdr [1]): M (medium inhibition (“M”=between 25 to 50% of the activity remaining))
IC50 [2]: 7.8 µM
Inhibition specificity towards pEY phosphorylation at 10X IC50, Kdr (Kdr [3]): H (high inhibition (“H”=less than 25% of the activity remaining))

Erbstatin analog
Inhibition specificity towards Autophosphorylation at 10X IC50, BTK (BTK): L (low inhibition (“L”=between 50–75% of the activity remaining))
Inhibition specificity towards Autophosphorylation at 10X IC50, Kdr (Kdr [1]): L (low inhibition (“L”=between 50–75% of the activity remaining))
IC50 [2]: 0.78 µM
